The values that follow come from US11332430B1, “Pleuromulin lauric acid ester with antibacterial activity and a method of preparing the same” (priority 2021, dated 2022).

One experiment concerns MRSA-596. Nature of the experiment: paper diffusion method drug sensitivity test, MRSA-596. To be noted: 30 μg/tablet, 37° C., 24 h, ≥17 mm sensitive, 15-16 mm intermediary, ≤14 mm drug resistance. It counts as cell-based, Staphylococcus aureus. As to the method: (§1) The antimicrobial efficacy was determined by a paper diffusion method drug sensitivity test.
(§2) Experimental strains: multi-resistant Staphylococcus aureus 171, multi-resistant Staphylococcus aureus 575, multi-resistant Staphylococcus aureus 596. The experimental strain was identified by Huashan Hospital Affiliated to Fudan University (Institute of Antibiotic of Fudan University).
(§3) Drug sensitive paper: The drug sensitive paper is a special drug sensitive paper with a diameter of 6.35 mm and a water absorption of 0.02 mL. The control was vancomycin (30 μg/tablet); the test compounds were pleuromulin (30 μg/tablet), lauric acid (30 μg/tablet) and pleuromulin lauric acid ester (30 μg/tablet).
(§4) The experimental strains were inoculated in non-selective medium and placed in air at 37° C. for 24 h. A single colony that grows well and inoculate it into broth medium was incubate at 35° C.±2° C. for 6 hours, and LA broth medium was used to calibrate the concentration of the bacterial solution to 0.5 Mie turbidimetric tube (1.5×10^8 CFU/mL). A bacterial suspension was obtained.
(§5) LB dry powder was weighed, sterilized at 103.4 Kpa, 121.3° C. high-pressure steam for 15 min, and then placed it in a 40° C.-50° C. water bath. A sterile empty plate (inner diameter 9 cm) was placed on the surface of the ultra-clean table water table, and […] was poured to the plate. The thickness of each plate was 3 mm to 4 mm. After the plate was cooled at room temperature, it was stored in the refrigerator at 2° C.-8° C. A sterile cotton swab was used to dip the bacterial solution and ti evenly coat the surface of the LB plate 3 times. After inoculation of the bacterial suspension, the LB plate was dried at room temperature for 3 min to 5 min. Sterile forceps were used to closely attach the antibacterial drug paper to the dish. The dish was put upside down and placed in a 37° C. incubator for 24 h. The results were observed by measuring the diameter. Taking 0.5% DMSO solution as a negative control, the antibacterial activity is expressed by the diameter of the inhibition zone. The inhibition zone ≥17 mm, sensitive; the inhibition zone of 15 mm-16 mm, intermediary; the inhibition zone ≤14 mm, drug resistance.

In the next experiment the test system is MRSA-206. Nature of the experiment: paper diffusion method drug sensitivity test, MRSA-206. The class given is cell-based, Staphylococcus aureus. The conditions noted are these: 30 μg/tablet, 37° C., 24 h, ≥17 mm sensitive, 15-16 mm intermediary, ≤14 mm drug resistance.
For another experiment, the system named is MRSA-575. The experiment is described as follows: paper diffusion method drug sensitivity test, MRSA-575. The class given is cell-based, Staphylococcus aureus. To be noted: 30 μg/tablet, 37° C., 24 h, ≥17 mm sensitive, 15-16 mm intermediary, ≤14 mm drug resistance. How it is done:
as §1, §2, §3, §4, §5

In experiment [1] the test system is multi-drug resistant Staphylococcus aureus 206, 575, 596. Nature of the experiment: paper diffusion method drug sensitivity test, summary over the strains. It counts as cell-based. The conditions noted are these: 30 μg/tablet. How it is done:
as §1, §2, §3, §4, §5

The mark [2] stands for this setting: listed as Pleuromutilin lauric acid derivative.

`CN[C@H](CC(C)C)C(=O)N[C@H]1C(=O)N[C@@H](CC(N)=O)C(=O)N[C@H]2C(=O)N[C@H]3C(=O)N[C@H](C(=O)N[C@H](C(=O)O)c4cc(O)cc(O)c4-c4cc3ccc4O)[C@H](O)c3ccc(c(Cl)c3)Oc3cc2cc(c3O[C@@H]2O[C@H](CO)[C@@H](O)[C@H](O)[C@H]2O[C@H]2C[C@](C)(N)[C@H](O)[C@H](C)O2)Oc2ccc(cc2Cl)[C@H]1O` [Vancomycin]: the Zone of inhibition was 23 mm in the experiment with MRSA-596, 15 mm with MRSA-206 and 17 mm with MRSA-575.

As to `CCCCCCCCCCCC(=O)O` [Laurie acid, Lauric acid], the Zone of inhibition in the experiment with MRSA-596, in the experiment with MRSA-206 and in the experiment on MRSA-575 was 0 mm in each case. Also, the “inhibitory effect on drug-resistant bacteria (in words)” value (from here on “inhibitory effect”) in experiment [1] is “no inhibitory effect”.

Take `C=C[C@]1(C)C[C@@H](OC(=O)CO)[C@]2(C)[C@H](C)CC[C@]3(CCC(=O)[C@H]32)[C@@H](C)[C@@H]1O` [Pleuromulin]: the Zone of inhibition with MRSA-596, with MRSA-206 and in the experiment on MRSA-575 was 0 mm in each case. For the same compound, the “inhibitory effect” value in experiment [1] was “no inhibitory effect”.

Regarding `C=C[C@]1(C)C[C@@H](OC(=O)COC(=O)CCCCCCCCCCC)[C@]2(C)CC[C@@H](C)[C@@]3(CCC(=O)[C@@H]23)[C@@H](C)[C@@H]1O` [Pleuromulinlauric acid ester, 2-(((3aS,4R,5S,6S,8R,9R,9aR,12R)-5-hydroxy-4,6,9,12-tetramethyl-1-oxo-6-vinyldecahydro-3a,9-propanocyclopenta[8]annulen-8-yl)oxy)-2-oxoethyl Dodecanoate], the Zone of inhibition with MRSA-596 is reported as 12 mm; in the experiment with MRSA-206, 13 mm; in the experiment with MRSA-575, 25 mm; with MRSA-575 (setting [2]) it was “up to 25 mm”. Further, the “inhibitory effect” value in experiment [1] was “excellent antibacterial activity”; in experiment [1] (setting [2]), “strong inhibitory effects”.
